Experimental data reported in US6472418B1, “Non-peptide NK1 receptors antagonists” (Warner-Lambert Company, priority 1998, dated 2002).
Like-named read-outs stand apart in the source and are kept apart here.

Key:
[1] = biological target: T1, Human NK1 Receptor (Homo sapiens, UniProt P25103); assay: In Vitro Human NK1 Receptor Binding Assay ([125I]Bolton-Hunter substance P displacement, IM9 cells)
T1 construct: endogenous in cells; host or cells: Human lymphoma IM9 cells (whole cells)
Method in brief: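 Radioligand displacement on whole IM9 human lymphoma cells (2.5×10^6 cells/mL) using [125I]Bolton-Hunter substance P (0.05-0.1 nM), 50 min at 21° C in Tris pH 7.4/MnCl2 buffer with protease inhibitors. Non-specific binding defined by […] [Sar9, Met(O2)11] substance P. Filtration, gamma counting, iterative curve fitting.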

[2] = Human lymphoma IM9 cells, [125I]Bolton-Hunter substance P (0.05-0.1 nM), 50 min at 21° C., Table 1, read-out: NK1 binding IC50
[3] = Human lymphoma IM9 cells, [125I]Bolton-Hunter substance P, Table 3, array-synthesis products, read-out: IC50 (nM) hNK1
[4] = human NK1 receptor, IM9 cells, [125I]Bolton-Hunter substance P, read-out: IC50 (nM) hNK1
[5] = Table 5, [125I]Bolton-Hunter substance P displacement, human IM9 cells, read-out: IC50 (nM) hNK1
[6] = Table 4, [125I]Bolton-Hunter substance P displacement, human IM9 cells, read-out: IC50 (nM) hNK1

T1 sequence (P25103 whole entry): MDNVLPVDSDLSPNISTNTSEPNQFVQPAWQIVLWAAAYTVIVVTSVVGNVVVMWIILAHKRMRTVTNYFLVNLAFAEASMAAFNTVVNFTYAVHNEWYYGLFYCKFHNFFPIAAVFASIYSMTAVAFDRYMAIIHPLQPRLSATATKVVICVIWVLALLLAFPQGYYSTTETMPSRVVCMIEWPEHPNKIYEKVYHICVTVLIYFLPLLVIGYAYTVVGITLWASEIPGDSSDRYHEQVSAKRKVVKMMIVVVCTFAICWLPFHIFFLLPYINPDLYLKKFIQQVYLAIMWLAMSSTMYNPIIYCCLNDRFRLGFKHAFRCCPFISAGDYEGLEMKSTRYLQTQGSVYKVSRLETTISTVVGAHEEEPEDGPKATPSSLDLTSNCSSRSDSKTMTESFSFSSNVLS

Row | Compound | melting point | IC50 [1, 2] | further results
1 | CC(C)(NC(=O)[C@@](C)(Cc1c[nH]c2ccccc12)NCc1cc2ccccc2o1)c1ccccc1 [Example 1, 2-[(Benzofuran-2-ylmethyl)-amino]-3-(1H-indol-3-yl)-2-methyl-N-(1-methyl-1-phenyl-ethyl)-propionamide, (R)] | 57 to 62 °C | 591 nM | 
2 | CN(C)C[C@H](NC(=O)[C@@](C)(Cc1c[nH]c2ccccc12)NCc1cc2ccccc2o1)c1ccccc1 [Example 4, 2-[(Benzofuran-2-ylmethyl)-amino]-N-(2-dimethylamino-1-phenyl-ethyl)-3-(1H-indol-3-yl)-2-methyl-propionamide, (R,R)] | 130 to 134 °C | 1210 nM | 
3 | C[C@](Cc1c[nH]c2ccccc12)(NCc1cc2ccccc2o1)C(=O)NCc1cccc(O)c1 [Example 5, 2-[(Benzofuran-2-ylmethyl)-amino]-N-(3-hydroxy-benzyl)-3-(1H-indol-3-yl)-2-methyl-propionamide, R] | 60 to 69 °C | 295 nM | 
4 | C[C@H](NC(=O)[C@@H](Cc1c[nH]c2ccccc12)NCc1cc2ccccc2s1)c1ccccc1 [Example 10, 2-[(Benzo[b]thiophen-2-ylmethyl)-amino]-3-(1H-indol-3-yl)-N-(1-phenyl-ethyl)-propionamide] | 102 to 108 °C | 51 nM | 
5 | C[C@H](NC(=O)[C@@](C)(Cc1c[nH]c2ccccc12)NCc1coc2ccccc12)c1ccccc1 (relative stereo) [Example 19, 2-[(Benzofuran-3-ylmethyl)-amino]-3-(1H-indol-3-yl)-2-methyl-N-(1-phenyl-ethyl)-propionamide, [R-(R*,S*)]] | 104 to 106 °C | 58 nM | 
6 | C[C@H](NC(=O)[C@@](C)(Cc1c[nH]c2ccccc12)NCc1ccc[nH]1)c1ccccc1 (relative stereo) [Example 20, 3-(1H-Indol-3-yl)-2-methyl-N-(1-phenyl-ethyl)-2-[(1H-pyrrol-2-ylmethyl)-amino]-propionamide, (R-(R*,S*)]] | 123 to 133 °C | 815 nM | 
7 | C[C@H](NC(=O)[C@@](C)(Cc1c[nH]c2ccccc12)NC(=O)NCc1cc2ccccc2o1)c1ccccc1 (relative stereo) [Example 22, 2-(3-Benzofuran-2-ylmethyl-ureido)-3-(1H-indol-3-yl)-2-methyl-N-(1-phenyl-ethyl)-propionamide, [R-(R*,S*)]] | 176 to 178 °C | 2.9 nM | 
8 | C[C@H](NC(=O)[C@@](C)(Cc1c[nH]c2ccccc12)NCc1cc2ccccc2o1)c1ccccc1 (relative stereo) [Example 18, 2-[(Benzofuran-2-ylmethyl)-amino]-3-(1H-indol-3-yl)-2-methyl-N-(1-phenyl-ethyl)-propionamide, [R-(R*,S*)]] | 118 to 121 °C | 4.4 nM | 
9 | C[C@H](NC(=O)[C@@H](Cc1c[nH]c2ccccc12)NCc1cnc2ccccc2c1)c1ccccc1 (relative stereo) [Example 11, 3-(1H-Indol-3-yl)-N-(1-phenyl-ethyl)-2-[(quinolin-3-ylmethyl)-amino]-propionamide, [R-(R*,S*)]] | 161 to 163 °C | 46 nM | 
10 | CC(NC(=O)[C@@](C)(Cc1c[nH]c2ccccc12)NCc1cc2ccccc2o1)c1ccn(C)c1 (stereo in doubt) [Example 2, 2-[(Benzofuran-2-ylmethyl)-amino]-3-(1H-indol-3-yl)-2-methyl-N-[1-(1-methyl-1H-pyrrol-3-yl)-ethyl]-propionamide, [R-(R*,R*)] and [R-(R*,S*)]] | 53 to 57 °C | 23 nM | 
11 | C[C@H](NC(=O)[C@@H](Cc1c[nH]c2ccccc12)NCc1nc2ccccc2[nH]1)c1ccccc1 (relative stereo) [Example 9, 2-[(1H-Benzoimidazol-2-ylmethyl)-amino]-3-(1H-indol-3-yl)-N-(1-phenyl-ethyl)-propionamide, [R-(R*,S*)]] | 148 to 152.5 °C | 112 nM | 
12 | C[C@H](NC(=O)[C@@](C)(Cc1c[nH]c2ccccc12)NCc1cc2ccccc2o1)c1ccncc1 (relative stereo) [Example 3, 2-[(Benzofuran-2-ylmethyl)-amino]-3-(1H-indol-3-yl)-2-methyl-N-(1-pyridin-4-yl-ethyl)-propionamide, [R(R*,S*)]] | 66 to 69 °C | 6 nM | 
13 | C[C@H](NC(=O)[C@@H](Cc1c[nH]c2ccccc12)NCCc1cc2ccccc2o1)c1ccccc1 (relative stereo) [Example 7, 2-(2-Benzofuran-2-yl-ethylamino)-3-(1H-indol-3-yl)-N-(1-phenyl-ethyl)-propionamide, [R-(R*,S*)]] | 105 to 107 °C | 3.3 nM | 
14 | O=C(NCc1ccc(F)c(F)c1)C(Cc1c[nH]c2ccccc12)NCc1cc2ccccc2o1 (centres unmarked) [Example 268, 2-[(Benzofuran-2-ylmethyl)-amino]-N-(3,4-difluoro-benzyl)-3-(1H-indol-3-yl)-propionamide] |  |  | IC50 [1, 3]: 10 nM
15 | COC1C=CC(CNC(=O)C(C)(Cc2c[nH]c3ccccc23)NCc2cc3ccccc3o2)(OC)O1 (centres unmarked) [compound 149, 2-[(Benzofuran-2-ylmethyl)-amino]-N-(2,5-dimethoxy-2,5-dihydro-furan-2-ylmethyl)-3-(1H-indol-3-yl)-2-methyl-propionamide] |  |  | IC50 [1, 4]: > 10000 nM
16 | COc1ccc(CNC(=O)C(C)(Cc2c[nH]c3ccccc23)NCc2cc3ccccc3o2)c(N)c1 (centres unmarked) [compound 188, N-(2-Amino-4-methoxy-benzyl)-2-[(benzofuran-2-ylmethyl)-amino]-3-(1H-indol-3-yl)-2-methyl-propionamide] |  |  | IC50 [1, 4]: 2280 nM

Row | Compound | melting point | IC50 [1, 2] | further results
17 | CC(NC(=O)C(Cc1c[nH]c2ccccc12)NCC(Cc1ccccc1)c1ccccc1)c1ccccc1 (centres unmarked) [compound 370] |  |  | IC50 [1, 5]: 534 nM
18 | O=C(NCc1ccccc1Cl)C(Cc1c[nH]c2ccccc12)NCc1cc2ccccc2o1 (centres unmarked) [Example 298, 2-[(Benzofuran-2-ylmethyl)-amino]-N-(2-chloro-benzyl)-3-(1H-indol-3-yl)-propionamide] |  |  | IC50 [1, 3]: 221 nM
19 | CC(Cc1c[nH]c2ccccc12)(NCc1cc2ccccc2o1)C(=O)NCC1(c2ccccc2)CC1 (centres unmarked) [compound 110, 2-[(Benzofuran-2-ylmethyl)-amino]-3-(1H-indol-3-yl)-2-methyl-N-(1-phenyl-cyclopropylmethyl)-propionamide] |  |  | IC50 [1, 4]: 1140 nM
20 | CC(Cc1c[nH]c2ccccc12)(NCc1cc2ccccc2o1)C(=O)NCc1c(F)cccc1F (centres unmarked) [compound 190, 2-[(Benzofuran-2-ylmethyl)-amino]-N-(2,6-difluoro-benzyl)-3-(1H-indol-3-yl)-2-methyl-propionamide] |  |  | IC50 [1, 4]: 3540 nM
21 | CC(C)(NC(=O)C(Cc1c[nH]c2ccccc12)NCc1cc2ccccc2o1)c1ccccc1 (centres unmarked) [Example 265, 2-[(Benzofuran-2-ylmethyl)-amino]-3-(1H-indol-3-yl)-N-(1-methyl-1-phenyl-ethyl)-propionamide] |  |  | IC50 [1, 3]: 328 nM
22 | CC(Cc1c[nH]c2ccccc12)(NCc1cc2ccccc2o1)C(=O)NC1NC(=O)c2ccccc21 (centres unmarked) [compound 85] |  |  | IC50 [1, 4]: 2440 nM
23 | CC(Cc1c[nH]c2ccccc12)(NCc1cc2ccccc2o1)C(=O)NCCn1cccc1 (centres unmarked) [compound 121, 2-[(Benzofuran-2-ylmethyl)-amino]-3-(1H-indol-3-yl)-2-methyl-N-(2-pyrrol-1-yl-ethyl)-propionamide] |  |  | IC50 [1, 4]: 654 nM
24 | CCCCCC(=Cc1ccccc1)CNC(C)(Cc1c[nH]c2ccccc12)C(=O)NC(C)c1ccccc1 (centres unmarked) [compound 356, 3-(1H-Indol-3-yl)-2-methyl-2-(2-pentyl-3-phenyl-allylamino)-N-(1-phenyl-ethyl)-propionamide] |  |  | IC50 [1, 6]: > 10000 nM
25 | CC(NC(=O)C(Cc1c[nH]c2ccccc12)NCc1cccc(Cl)c1)c1ccccc1 (centres unmarked) [compound 400] |  |  | IC50 [1, 5]: 13 nM
26 | CC(NC(=O)C(Cc1c[nH]c2ccccc12)NCc1cc2ccccc2o1)c1ccc(Cl)s1 (centres unmarked) [Example 243, 2-[(Benzofuran-2-ylmethyl)-amino]-N-[1-(5-chloro-thiophen-2-yl)-ethyl]-3-(1H-indol-3-yl)-propionamide] |  |  | IC50 [1, 3]: 15 nM
27 | CC(NC(=O)C(C)(Cc1c[nH]c2ccccc12)NCc1ccc2c(c1)OCO2)c1ccccc1 (centres unmarked) [compound 349, 2-[(Benzo[1,3]dioxol-5-ylmethyl)-amino]-3-(1H-indol-3-yl)-2-methyl-N-(1-phenyl-ethyl)-propionamide] |  |  | IC50 [1, 6]: 356 nM
28 | CC(Cc1ccc(Cl)cc1)NC(=O)C(Cc1c[nH]c2ccccc12)NCc1cc2ccccc2o1 (centres unmarked) [Example 282, 2-[(Benzofuran-2-ylmethyl)-amino]-N-[2-(4-chloro-phenyl)-1-methyl-ethyl]-3-(1H-indol-3-yl)-propionamide] |  |  | IC50 [1, 3]: 833 nM
29 | 2-(4-Chloro-3-sulfamoyl-benzylamino)-3-(1H-indol-3-yl)-2-methyl-N-(1-phenyl-ethyl)-propionamide [compound 336] |  |  | IC50 [1, 6]: 4230 nM
30 | O=C(NCc1cccc(F)c1)C(Cc1c[nH]c2ccccc12)NCc1cc2ccccc2o1 (centres unmarked) [Example 248, 2-[(Benzofuran-2-ylmethyl)-amino]-N-(3-fluoro-benzyl)-3-(1H-indol-3-yl)-propionamide] |  |  | IC50 [1, 3]: 6 nM
31 | CC(Cc1c[nH]c2ccccc12)(NCc1cc2ccccc2o1)C(=O)NCCN1CCOCC1 (centres unmarked) [compound 128, 2-[(Benzofuran-2-ylmethyl)-amino]-3-(1H-indol-3-yl)-2-methyl-N-(2-morpholin-4-yl-ethyl)-propionamide] |  |  | IC50 [1, 4]: > 10000 nM
